Laboratory results taken from ChEMBL document CHEMBL2150945, “Synthesis and biological evaluation of novel piperazine derivatives of flavone as potent anti-inflammatory and antimicrobial agent” (2012).
Values after ≈ are worked out from the molar mass of the structure shown.

Experiments:
Staphylococcus aureus [1] = assay: Ratio of ciprofloxacin MIC to compound MIC for Staphylococcus aureus MTCC 96; type: functional
Staphylococcus aureus [2] = assay: Antibacterial activity against Staphylococcus aureus MTCC 96 after 24 hrs by modified agar well diffusion method; type: functional; details: MTCC 96, 24 h
Salmonella typhimurium [3] = assay: Ratio of ciprofloxacin MIC to compound MIC for Salmonella typhimurium MTCC 98; type: functional, Salmonella enterica subsp. enterica serovar Typhimurium
Escherichia coli [4] = assay: Ratio of ciprofloxacin MIC to compound MIC for Escherichia coli MTCC 443; type: functional
Escherichia coli [5] = assay: Antibacterial activity against Escherichia coli MTCC 443 after 24 hrs by modified agar well diffusion method; type: functional; details: MTCC 443, 24 h
Aspergillus niger [6] = assay: Ratio of miconazole MIC to compound MIC for Aspergillus niger MTCC 281; type: functional
Aspergillus flavus [7] = assay: Ratio of miconazole MIC to compound MIC for Aspergillus flavus MTCC 277; type: functional
Aspergillus niger [8] = assay: Antifungal activity against Aspergillus niger MTCC 281 after 2 to 3 days by modified agar well diffusion method; type: functional
THP-1 [9] = assay: Antiinflammatory activity in human PMA-activated THP1 cells assessed as inhibition of LPS-induced IL6 production at 10 uM incubated for 30 mins prior to LPS-challenge measured after 24 hrs by ELISA relative to control; type: functional
THP-1 [10] = assay: Antiinflammatory activity in human PMA-activated THP1 cells assessed as inhibition of LPS-induced TNFalpha production at 10 uM incubated for 30 mins prior to LPS-challenge measured after 24 hrs by ELISA relative to control; type: functional
Bacillus subtilis [11] = assay: Ratio of ciprofloxacin MIC to compound MIC for Bacillus subtilis MTCC 441; type: functional
Candida albicans [12] = assay: Antifungal activity against Candida albicans MTCC 227 after 2 to 3 days by modified agar well diffusion method; type: functional
Fusarium solani [13] = assay: Antifungal activity against Fusarium solani MTCC 350 after 2 to 3 days by modified agar well diffusion method; type: functional
Candida albicans [14] = assay: Ratio of miconazole MIC to compound MIC for Candida albicans MTCC 227; type: functional
Fusarium solani [15] = assay: Ratio of miconazole MIC to compound MIC for Fusarium solani MTCC 350; type: functional
Aspergillus flavus [16] = assay: Antifungal activity against Aspergillus flavus MTCC 277 after 2 to 3 days by modified agar well diffusion method; type: functional
Bacillus subtilis [17] = assay: Antibacterial activity against Bacillus subtilis MTCC 441 after 24 hrs by modified agar well diffusion method; type: functional; details: MTCC 441, 24 h
Salmonella typhimurium [18] = assay: Antibacterial activity against Salmonella typhimurium MTCC 98 after 24 hrs by modified agar well diffusion method; type: functional, Salmonella enterica subsp. enterica serovar Typhimurium; details: Salmonella enterica, MTCC 98, 24 h
THP-1 [19] = assay: Antiinflammatory activity in human PMA-activated THP1 cells assessed as inhibition of LPS-induced TNFalpha production at 1 uM incubated for 30 mins prior to LPS-challenge measured after 24 hrs by ELISA relative to control; type: functional
THP-1 [20] = assay: Antiinflammatory activity in human PMA-activated THP1 cells assessed as inhibition of LPS-induced IL6 production at 1 uM incubated for 30 mins prior to LPS-challenge measured after 24 hrs by ELISA relative to control; type: functional

| SMILES | Ratio (Staphylococcus aureus [1]) | MIC (Staphylococcus aureus [2]) [µg/mL] | Ratio (Salmonella typhimurium [3]) | Ratio (Escherichia coli [4]) | MIC (Escherichia coli [5]) [µg/mL] | Ratio (Aspergillus niger [6]) | Ratio (Aspergillus flavus [7]) | MIC (Aspergillus niger [8]) [µg/mL] | inhibition at 10 µM (THP-1 [9]) [%] | inhibition at 10 µM (THP-1 [10]) [%] | Ratio (Bacillus subtilis [11]) | MIC (Candida albicans [12]) [µg/mL] | MIC (Fusarium solani [13]) [µg/mL] | Ratio (Candida albicans [14]) | Ratio (Fusarium solani [15]) | MIC (Aspergillus flavus [16]) [µg/mL] | MIC (Bacillus subtilis [17]) [µg/mL] | MIC (Salmonella typhimurium [18]) [µg/mL] | inhibition at 1 µM (THP-1 [19]) [%] | inhibition at 1 µM (THP-1 [20]) [%] |
| --- | --- | --- | --- | --- | --- | --- | --- | --- | --- | --- | --- | --- | --- | --- | --- | --- | --- | --- | --- | --- |
| COc1cc(OC)c2c(=O)cc(CNC3CCN(Cc4ccccc4)CC3)oc2c1 | 2 | 10 (≈ 24.5 µM) | 2 | 2 | 10 (≈ 24.5 µM) | 2 | 2 | 10 (≈ 24.5 µM) | 35 | 20 | 2 | 10 (≈ 24.5 µM) | 15 (≈ 36.7 µM) | 2 | 2 | 10 (≈ 24.5 µM) | 10 (≈ 24.5 µM) | 15 (≈ 36.7 µM) | – | – |
| COc1ccc2oc(N3CCN(c4ccccc4)CC3)cc(=O)c2c1 | – | 75 (≈ 223 µM) | – | – | 80 (≈ 238 µM) | – | – | 85 (≈ 253 µM) | 60 | 45 | – | 90 (≈ 268 µM) | 80 (≈ 238 µM) | – | – | 95 (≈ 282 µM) | 50 (≈ 149 µM) | 80 (≈ 238 µM) | – | – |
| COc1ccc2oc(N3CCN(c4ccccc4)CC3C#N)cc(=O)c2c1 (stereo unspecified) | 2 | 40 (≈ 111 µM) | 2 | 2 | 45 (≈ 125 µM) | 2 | 2 | 10 (≈ 27.7 µM) | 0 | 10 | 2 | 15 (≈ 41.5 µM) | 15 (≈ 41.5 µM) | 2 | 2 | 30 (≈ 83 µM) | 30 (≈ 83 µM) | 50 (≈ 138 µM) | – | – |
| COc1ccc2oc(N3CCN(c4ncccn4)CC3)cc(=O)c2c1 | – | 80 (≈ 236 µM) | – | – | 80 (≈ 236 µM) | – | – | 70 (≈ 207 µM) | 87 | 82 | – | 85 (≈ 251 µM) | 95 (≈ 281 µM) | – | – | 85 (≈ 251 µM) | 65 (≈ 192 µM) | 80 (≈ 236 µM) | – | – |
| COc1ccc2oc(N3CCN(Cc4ccccc4)CC3)cc(=O)c2c1 | – | 70 (≈ 200 µM) | – | – | 65 (≈ 185 µM) | – | – | 30 (≈ 85.6 µM) | 0 | 0 | – | 55 (≈ 157 µM) | 45 (≈ 128 µM) | – | – | 65 (≈ 185 µM) | 55 (≈ 157 µM) | 65 (≈ 185 µM) | – | – |
| CCN1CCN(c2cc(=O)c3cc(OC)ccc3o2)CC1 | – | 90 (≈ 312 µM) | – | – | – | – | – | 60 (≈ 208 µM) | 40 | 30 | – | 75 (≈ 260 µM) | 70 (≈ 243 µM) | – | – | 70 (≈ 243 µM) | 80 (≈ 277 µM) | – | – | – |
| COc1ccc2oc(N3CCN(C)CC3)cc(=O)c2c1 | – | 50 (≈ 182 µM) | – | – | 40 (≈ 146 µM) | – | – | 90 (≈ 328 µM) | 35 | 25 | – | 90 (≈ 328 µM) | – | – | – | – | 45 (≈ 164 µM) | 65 (≈ 237 µM) | – | – |
| COc1ccc(N2CCN(c3cc(=O)c4cc(OC)ccc4o3)CC2)cc1 | – | 60 (≈ 164 µM) | – | – | 75 (≈ 205 µM) | – | – | 75 (≈ 205 µM) | 83 | 79 | – | 95 (≈ 259 µM) | 85 (≈ 232 µM) | – | – | 90 (≈ 246 µM) | 45 (≈ 123 µM) | 80 (≈ 218 µM) | – | – |
| COc1ccc2oc(NCCN3CCCC3)cc(=O)c2c1 | 2 | 20 (≈ 69.4 µM) | 2 | 2 | 15 (≈ 52 µM) | 2 | 2 | 10 (≈ 34.7 µM) | 20 | 5 | 2 | 10 (≈ 34.7 µM) | 10 (≈ 34.7 µM) | 2 | 2 | 15 (≈ 52 µM) | 10 (≈ 34.7 µM) | 10 (≈ 34.7 µM) | – | – |
| COc1ccc2oc(NC3CCN(Cc4ccccc4)CC3)cc(=O)c2c1 | 2 | 10 (≈ 27.4 µM) | 2 | 2 | 10 (≈ 27.4 µM) | 2 | 2 | 10 (≈ 27.4 µM) | 15 | 10 | 2 | 15 (≈ 41.2 µM) | 10 (≈ 27.4 µM) | 2 | 2 | 15 (≈ 41.2 µM) | 10 (≈ 27.4 µM) | 10 (≈ 27.4 µM) | – | – |
| COc1cc(OC)c2c(=O)cc(CN3CCN(c4ccccc4)CC3)oc2c1 | – | 90 (≈ 237 µM) | – | – | 90 (≈ 237 µM) | – | – | 90 (≈ 237 µM) | 50 | 45 | – | 80 (≈ 210 µM) | 95 (≈ 250 µM) | – | – | 85 (≈ 223 µM) | 90 (≈ 237 µM) | 90 (≈ 237 µM) | – | – |
| COc1ccc(N2CCN(Cc3cc(=O)c4c(OC)cc(OC)cc4o3)CC2)cc1 | – | 65 (≈ 158 µM) | – | – | 70 (≈ 171 µM) | – | – | 80 (≈ 195 µM) | 93 | 85 | – | 95 (≈ 231 µM) | 75 (≈ 183 µM) | – | – | 85 (≈ 207 µM) | 40 (≈ 97.4 µM) | 65 (≈ 158 µM) | – | – |
| COc1cc(OC)c2c(=O)cc(CN3CCN(c4ccccn4)CC3)oc2c1 | – | – | – | – | – | – | – | 95 (≈ 249 µM) | 70 | 65 | – | 85 (≈ 223 µM) | 90 (≈ 236 µM) | – | – | 95 (≈ 249 µM) | 85 (≈ 223 µM) | – | – | – |
| COc1cc(OC)c2c(=O)cc(CN3CCN(c4ncccn4)CC3)oc2c1 | – | – | – | – | 90 (≈ 235 µM) | – | – | 75 (≈ 196 µM) | 93 | 87 | – | 90 (≈ 235 µM) | 65 (≈ 170 µM) | – | – | 95 (≈ 248 µM) | – | 90 (≈ 235 µM) | – | – |
| COc1cc(OC)c2c(=O)cc(CN3CCN(C(C)=O)CC3)oc2c1 | – | 80 (≈ 231 µM) | – | – | 95 (≈ 274 µM) | – | – | 60 (≈ 173 µM) | 0 | 0 | – | 75 (≈ 217 µM) | 85 (≈ 245 µM) | – | – | 90 (≈ 260 µM) | 60 (≈ 173 µM) | 90 (≈ 260 µM) | – | – |
| COc1cc(OC)c2c(=O)cc(CN3CCN(C)CC3)oc2c1 | – | 60 (≈ 188 µM) | – | – | 90 (≈ 283 µM) | – | – | 55 (≈ 173 µM) | 0 | 10 | – | 70 (≈ 220 µM) | 75 (≈ 236 µM) | – | – | 75 (≈ 236 µM) | 45 (≈ 141 µM) | 90 (≈ 283 µM) | – | – |
| CCN1CCN(Cc2cc(=O)c3c(OC)cc(OC)cc3o2)CC1 | – | 75 (≈ 226 µM) | – | – | 70 (≈ 211 µM) | – | – | 35 (≈ 105 µM) | 30 | 20 | – | 55 (≈ 165 µM) | 45 (≈ 135 µM) | – | – | 60 (≈ 181 µM) | 65 (≈ 196 µM) | 70 (≈ 211 µM) | – | – |
| COc1cc(OC)c2c(=O)cc(CN3CCOCC3)oc2c1 | – | – | – | – | – | – | – | 80 (≈ 262 µM) | 91 | 85 | – | 85 (≈ 278 µM) | 85 (≈ 278 µM) | – | – | 90 (≈ 295 µM) | 90 (≈ 295 µM) | – | – | – |
| COc1cc(OC)c2c(=O)cc(CN3CCN(C/C=C/c4ccccc4)CC3)oc2c1 | 2 | 20 (≈ 47.6 µM) | 2 | 2 | 15 (≈ 35.7 µM) | 2 | 2 | – | 25 | 10 | 2 | 90 (≈ 214 µM) | – | 2 | 2 | – | 10 (≈ 23.8 µM) | 10 (≈ 23.8 µM) | – | – |
| COc1ccc2oc(N3CCOCC3)cc(=O)c2c1 | – | 95 (≈ 364 µM) | – | – | 90 (≈ 344 µM) | – | – | 90 (≈ 344 µM) | 84 | 80 | – | – | – | – | – | – | 75 (≈ 287 µM) | 90 (≈ 344 µM) | – | – |
| O=C(O)c1cn(C2CC2)c2cc(N3CCNCC3)c(F)cc2c1=O [CIPROFLOXACIN] | – | – | – | – | 15 (≈ 45.3 µM) | – | – | – | – | – | – | – | – | – | – | – | 25 (≈ 75.4 µM) | 25 (≈ 75.4 µM) | – | – |
| C[C@@H]1C[C@H]2[C@@H]3CCC4=CC(=O)C=C[C@]4(C)[C@@]3(F)[C@@H](O)C[C@]2(C)[C@@]1(O)C(=O)CO [DEXAMETHASONE] | – | – | – | – | – | – | – | – | – | – | – | – | – | – | – | – | – | – | 71 | 84 |
| Clc1ccc(COC(Cn2ccnc2)c2ccc(Cl)cc2Cl)c(Cl)c1 (stereo unspecified) [MICONAZOLE] | – | – | – | – | – | – | – | 20 (≈ 48.1 µM) | – | – | – | 25 (≈ 60.1 µM) | 15 (≈ 36 µM) | – | – | 20 (≈ 48.1 µM) | – | – | – | – |
